Consider 26 compounds from patent US20230116972A1, “CD38 MODULATORS AND METHODS OF USE THEREOF” (Cytokinetics, Inc., priority 2021, published 2023).

pIC50: −log10 of the molar value.

The pIC50 is −log10 of the IC50, conventionally taken in molar units.

In assay [1] the target is T1, mouse CD38 (Mus musculus, UniProt P56528).
T1 sequence (P56528 1-304): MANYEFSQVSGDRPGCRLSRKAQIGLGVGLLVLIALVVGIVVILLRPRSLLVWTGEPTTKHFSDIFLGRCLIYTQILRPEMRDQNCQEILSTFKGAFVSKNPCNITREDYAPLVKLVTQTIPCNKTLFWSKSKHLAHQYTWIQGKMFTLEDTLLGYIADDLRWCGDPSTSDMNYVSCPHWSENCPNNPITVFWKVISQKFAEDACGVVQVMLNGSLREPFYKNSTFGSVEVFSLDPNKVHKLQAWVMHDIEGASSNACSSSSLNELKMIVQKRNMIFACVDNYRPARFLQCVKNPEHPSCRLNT
The assay is described as follows: mouse recombinant CD38 enzyme assay (hydrolysis of NAD+). The class given is biochemical. The settings on record: read-out: mCD38 BioChem IC50. In a few lines: (§1)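 Steps: compound and recombinant enzyme are mixed, NAD+ is added, and the reaction runs 60 min at room temperature. An ADH/ethanol mix containing a CD38 inhibitor halts hydrolysis and forms NADH. After NaOH quench, resazurin plus diaphorase produce fluorescent resorufin, read at 540/590 nm.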

The target of assay [2] is T2, endogenous CD38 in HL60 cells (Homo sapiens, UniProt P28907).
T2 construct: endogenous in cells; host or cells: HL60 (leukemic cells, treated with all-trans retinoic acid)
T2 sequence (P28907 1-300): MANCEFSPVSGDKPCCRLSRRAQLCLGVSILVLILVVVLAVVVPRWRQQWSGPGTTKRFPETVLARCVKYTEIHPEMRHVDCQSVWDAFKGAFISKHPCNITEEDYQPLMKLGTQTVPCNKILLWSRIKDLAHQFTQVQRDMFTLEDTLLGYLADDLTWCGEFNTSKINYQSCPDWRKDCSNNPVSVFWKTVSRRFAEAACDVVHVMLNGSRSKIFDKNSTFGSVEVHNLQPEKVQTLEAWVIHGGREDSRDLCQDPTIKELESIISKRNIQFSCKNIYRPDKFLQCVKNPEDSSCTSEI
Description: cellular CD38 assay in HL60 cells (cellular NAD levels). The class given is cell-based. The note with it: all-trans retinoic acid, 24 hours, read-out: hCD38 HL60 ATRA NAD Cell Diaphorase IC50. In a few lines: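 Endogenous CD38 inhibition is inferred from NAD levels in HL60 cells after 24 h compound exposure at 20000 cells per well. A lytic cycling readout (0.2 U/mL diaphorase, 0.8 U/mL alcohol dehydrogenase, resazurin, FMN, ethanol, 0.2% Triton X-100, Tris/EDTA pH 8.4) ran 60 min at ambient temperature. Resorufin fluorescence was read at 540/590 nm.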

Assay [3] has as its target T3, human CD38 (Homo sapiens, UniProt P28907).
T3 sequence (P28907 1-300): T2 sequence (P28907 1-300)
Description: human recombinant CD38 enzyme assay (hydrolysis of NAD+). Type of assay: biochemical. The settings on record: human recombinant CD38, 0.4 nM enzyme, 62.5 μM NAD+; read-out: hCD38 BioChem IC50. The method in brief:
as §1

In the case of `O=C(Nc1ccccc1F)c1cccc(-n2ccnc2)n1` [Compound 17, N-(2-fluorophenyl)-6-(1H-imidazol-1-yl)picolinamide], the negative logarithm of the IC50 (pIC50) was 7.57 in assay [1], 5.85 in assay [2] and 7.17 in assay [3].
With `Cn1cncc1-c1ccnc(C(=O)Nc2ccc(C(F)(F)F)nc2)n1` [Compound 74, 4-(1-methyl-1H-imidazol-5-yl)-N-(6-(trifluoromethyl)pyridin-3-yl)pyrimidine-2-carboxamide], the pIC50 in assay [1] was 8.00; in assay [2], 6.46; in assay [3] it was 8.52.
The corresponding values for `O=C(Nc1ccncc1)c1cc(-n2ccnc2)ccn1` [Compound 7, 4-(1H-imidazol-1-yl)-N-(pyridin-4-yl)picolinamide] are 6.65, 5.35 and 6.26.
Take `Cn1cncc1-c1nc(C(=O)Nc2ccc(OC(F)F)nc2)cc(C2CCOCC2)n1` [Compound 282, N-(6-(difluoromethoxy)pyridin-3-yl)-2-(1-methyl-1H-imidazol-5-yl)-6-(tetrahydro-2H-pyran-4-yl)pyrimidine-4-carboxamide]: the negative logarithm of the IC50 (pIC50) in assay [1] is 9.15; in assay [2] it was 6.18; in assay [3] it was 8.62.
Turning to `O=C(N[C@H]1CC[C@](O)(c2ccccc2)CC1)c1nccc(-n2ccnc2)n1` [Compound 260, N-((1s,4s)-4-hydroxy-4-phenylcyclohexyl)-4-(1H-imidazol-1-yl)pyrimidine-2-carboxamide], the figures for the pIC50 in assay [1], in assay [2] and in assay [3] were 6.79, 4.97 and 6.57, respectively.
`O=C(Nc1ccc(C(F)F)nc1)c1ccnc(-n2ccnc2)n1` [Compound 93, N-(6-(difluoromethyl)pyridin-3-yl)-2-(1H-imidazol-1-yl)pyrimidine-4-carboxamide]: the negative logarithm of the IC50 (pIC50) in assay [1] was 8.30; in assay [2] it was 6.73; in assay [3], 8.70.
As for `Cn1cncc1-c1ccnc(C(=O)N[C@H]2CC[C@](O)(c3ccccc3)CC2)n1` [Compound 252, N-((1s,4s)-4-hydroxy-4-phenylcyclohexyl)-4-(1-methyl-1H-imidazol-5-yl)pyrimidine-2-carboxamide], the figures for the pIC50 in assay [1], in assay [2] and in assay [3] were 6.74, 5.31 and 6.59, respectively.
`COCCOc1cc(-c2cncn2C)nc(C(=O)Nc2ccc(C(F)F)nc2)n1` [Compound 224, N-(6-(difluoromethyl)pyridin-3-yl)-4-(2-methoxyethoxy)-6-(1-methyl-1H-imidazol-5-yl)pyrimidine-2-carboxamide]: the negative logarithm of the IC50 (pIC50) in assay [1] is 8.96; in assay [2], 6.15; in assay [3], 8.25.
For `Cn1cncc1-c1cccc(C(=O)N[C@H]2CC[C@H](C(F)F)CC2)n1` [Compound 77, N-(4-(difluoromethyl)cyclohexyl)-6-(1-methyl-1H-imidazol-5-yl)picolinamide], the results for the pIC50 in assay [1], in assay [2] and in assay [3] were 7.49, 5.47 and 6.88, respectively.
With `CC(C)(O)[C@H]1CC[C@H](NC(=O)c2cccc(-n3ccnc3)n2)CC1` [Compound 134, N-((1r,4r)-4-(2-Hydroxypropan-2-yl)cyclohexyl)-6-(1H-imidazol-1-yl)picolinamide], the pIC50 in assay [1] is 8.30; in assay [2] it was 5.52; in assay [3], 7.43.
On to `Cn1cncc1-c1nccc(C(=O)NC2CC3(C2)CC(F)(F)C3)n1` [Compound 82, N-(6,6-difluorospiro[3.3]heptan-2-yl)-2-(1-methyl-1H-imidazol-5-yl)pyrimidine-4-carboxamide], for which the values for the pIC50 in assay [1], in assay [2] and in assay [3] were 8.52, 5.97 and 8.00, respectively.
Take `COc1cc(C(=O)Nc2ccc(C(F)F)nc2)nc(-n2ccnc2)n1` [Compound 127, N-(6-(difluoromethyl)pyridin-3-yl)-2-(1H-imidazol-1-yl)-6-methoxypyrimidine-4-carboxamide]: the pIC50 in assay [1] is 8.70; in assay [2] it was 6.47; in assay [3], 8.70.
Regarding `Cn1cncc1-c1ccnc(C(=O)N[C@H]2C[C@H](c3ccc(F)cc3F)C2)n1` [Compound 243, N-((1r,3r)-3-(2,4-difluorophenyl)cyclobutyl)-4-(1-methyl-1H-imidazol-5-yl)pyrimidine-2-carboxamide], the negative logarithm of the IC50 (pIC50) in assay [1] was 7.84; in assay [2], 5.43; in assay [3], 7.55.
With `O=C(Nc1cccnc1)c1cc(-n2ccnc2)ccn1` [Compound 1, 4-(1H-imidazol-1-yl)-N-(pyridin-3-yl)picolinamide], the negative-log IC50 (pIC50) was 6.45 in assay [1], 5.70 in assay [2] and 6.61 in assay [3].
As to `Cn1cncc1-c1ccnc(C(=O)N[C@H]2CCN(c3ccccc3)C2)n1` [Compound 246, (S)-4-(1-methyl-1H-imidazol-5-yl)-N-(1-phenylpyrrolidin-3-yl)pyrimidine-2-carboxamide], the pIC50 in assay [1] was 7.21; in assay [2], 5.06; in assay [3] it was 7.08.
The corresponding values for `Cn1cncc1-c1ccnc(C(=O)N[C@H]2C[C@@H](c3ccccc3)C2)n1` [Compound 214, 4-(1-methyl-1H-imidazol-5-yl)-N-((1s,3s)-3-phenylcyclobutyl)pyrimidine-2-carboxamide] are 7.28, 5.01 and 6.49.
Take `CO[C@H]1CC[C@H](NC(=O)c2cc(C)nc(-n3ccnc3)n2)CC1` [Compound 118, 2-(1H-imidazol-1-yl)-N-((1r,4r)-4-methoxycyclohexyl)-6-methylpyrimidine-4-carboxamide]: the negative logarithm of the IC50 (pIC50) in assay [1] is 8.52; in assay [2] it was 5.79; in assay [3], 7.77.
For `O=C(Nc1cccnc1)c1cc(C(F)(F)F)cc(-n2ccnc2)n1` [Compound 40, 6-(1H-imidazol-1-yl)-N-(pyridin-3-yl)-4-(trifluoromethyl)picolinamide], the pIC50 in assay [1] was 8.70; in assay [2], 6.02; in assay [3] it was 8.22.
For `O=C(N[C@H]1CC[C@H](OC(F)(F)F)CC1)c1nccc(-n2ccnc2)n1` [Compound 308, 4-(1H-imidazol-1-yl)-N-((1r,4r)-4-(trifluoromethoxy)cyclohexyl)pyrimidine-2-carboxamide], the negative logarithm of the IC50 (pIC50) is 7.03 in assay [1], 5.20 in assay [2] and 6.90 in assay [3].
`Cc1cc(C(=O)N[C@H]2CC[C@H](C)CC2)nc(-n2ccnc2)n1` [Compound 119, 2-(1H-imidazol-1-yl)-6-methyl-N-((1r,4r)-4-methylcyclohexyl)pyrimidine-4-carboxamide]: the pIC50 in assay [1] is 9.00; in assay [2], 5.80; in assay [3], 8.00.
Consider `Cn1cncc1-c1ccnc(C(=O)N[C@H]2C[C@H](c3cccc(F)c3)C2)n1` [Compound 241, N-((1r,3r)-3-(3-fluorophenyl)cyclobutyl)-4-(1-methyl-1H-imidazol-5-yl)pyrimidine-2-carboxamide], for which the results for the pIC50 in assay [1], in assay [2] and in assay [3] were 7.84, 5.69 and 7.78, respectively.
As to `O=C(Nc1ccc(C(F)(F)F)nc1)c1cccc(-n2ccnc2)n1` [Compound 13, 6-(1H-imidazol-1-yl)-N-(6-(trifluoromethyl)pyridin-3-yl)picolinamide], the pIC50 was 8.10 in assay [1], 6.25 in assay [2] and 8.22 in assay [3].
For the compound `Cc1ccc(NC(=O)c2cc(-n3ccnc3)ccn2)cn1` [Compound 2, 4-(1H-imidazol-1-yl)-N-(6-methylpyridin-3-yl)picolinamide], the figures for the pIC50 in assay [1], in assay [2] and in assay [3] were 6.00, 5.51 and 6.46, respectively.
For `O=C(Nc1cccnc1)c1cncc(-n2ccnc2)n1` [Compound 56, 6-(1H-imidazol-1-yl)-N-(pyridin-3-yl)pyrazine-2-carboxamide], in that order: 8.22, 6.58 and 8.30.
Take `O=C(Nc1ccc(C(F)(F)F)nc1)c1ccnc(-c2cncs2)n1` [Compound 86, 2-(thiazol-5-yl)-N-(6-(trifluoromethyl)pyridin-3-yl)pyrimidine-4-carboxamide]: the values for the negative logarithm of the IC50 (pIC50) in assay [1], in assay [2] and in assay [3] were 6.66, 5.06 and 6.71, respectively.
For `Cn1cncc1-c1cccc(C(=O)Nc2ccc(C(F)(F)F)nc2)n1` [Compound 71, 6-(1-methyl-1H-imidazol-5-yl)-N-(6-(trifluoromethyl)pyridin-3-yl)picolinamide], in that order: 7.60, 5.84 and 7.82.
